# Results from patent US20250214991A1 (Oncopia Therapeutics, Inc. d/b/a/ SK Life Science Labs, priority 2022, published 2025).
# Key:
# IKZF1 = IKZF1 (Homo sapiens (Human), UniProt Q13422+Q96SW2); assay: In vitro IKZF1 HiBit Assay (HEK293T Flp-in-HiBiT-IKZF1 stable cell line); assay type: cell-based; conditions: HEK293T Flp-in-HiBiT-IKZF1 stable cell line, 6 hrs incubation; for DC50: read-out: IKZF1 HiBit DC50; for Dmax: HEK-293T, read-out: IKZF1 HiBit Dmax (%)
# Outline: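 Degradation was measured as loss of luminescence from the HiBiT-IKZF1 tag after 6 h compound treatment, with 0.1% final DMSO, in stable HEK293T Flp-in cells. Values were normalized to DMSO, giving the 50% degradation concentration and the maximal degradation range.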
# IKZF2 [1] = molecular target: T1, IKZF2 (Homo sapiens (Human), UniProt Q96SW2+Q9UKS7); assay: In vitro IKZF2 FACS Assay in Jurkat cells; assay type: cell-based; conditions: 24 hrs; for DC50: half maximal degradation concentration; for Dmax: maximal degradation percentage
# T1 sequence (Q9UKS7 whole entry): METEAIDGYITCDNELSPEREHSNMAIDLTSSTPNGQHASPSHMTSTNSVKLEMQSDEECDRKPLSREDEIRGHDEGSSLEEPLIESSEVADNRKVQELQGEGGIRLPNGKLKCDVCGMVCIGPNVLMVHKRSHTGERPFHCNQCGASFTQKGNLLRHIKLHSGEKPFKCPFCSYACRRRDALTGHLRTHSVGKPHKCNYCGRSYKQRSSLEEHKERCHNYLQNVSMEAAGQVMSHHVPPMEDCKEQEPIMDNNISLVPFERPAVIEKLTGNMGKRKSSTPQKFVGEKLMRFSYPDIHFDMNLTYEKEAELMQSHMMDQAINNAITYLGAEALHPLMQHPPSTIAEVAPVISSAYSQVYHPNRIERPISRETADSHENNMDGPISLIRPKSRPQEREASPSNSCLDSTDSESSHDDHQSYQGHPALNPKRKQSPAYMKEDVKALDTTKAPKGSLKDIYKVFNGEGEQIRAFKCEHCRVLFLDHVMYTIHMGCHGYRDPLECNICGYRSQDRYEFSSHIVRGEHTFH
# T1 sequence (Q96SW2 whole entry): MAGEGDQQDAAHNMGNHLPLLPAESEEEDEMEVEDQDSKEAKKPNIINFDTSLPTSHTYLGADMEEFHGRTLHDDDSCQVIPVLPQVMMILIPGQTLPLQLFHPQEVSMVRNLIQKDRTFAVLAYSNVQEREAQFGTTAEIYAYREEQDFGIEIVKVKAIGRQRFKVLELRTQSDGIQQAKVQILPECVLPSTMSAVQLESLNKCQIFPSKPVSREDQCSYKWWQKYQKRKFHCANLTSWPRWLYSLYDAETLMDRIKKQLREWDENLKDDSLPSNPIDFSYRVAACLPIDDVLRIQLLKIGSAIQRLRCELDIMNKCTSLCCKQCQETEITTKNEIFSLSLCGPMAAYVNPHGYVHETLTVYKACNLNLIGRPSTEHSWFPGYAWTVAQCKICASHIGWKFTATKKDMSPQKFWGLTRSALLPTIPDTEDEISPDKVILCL
# T1 sequence (Q16531 2-1140 partner): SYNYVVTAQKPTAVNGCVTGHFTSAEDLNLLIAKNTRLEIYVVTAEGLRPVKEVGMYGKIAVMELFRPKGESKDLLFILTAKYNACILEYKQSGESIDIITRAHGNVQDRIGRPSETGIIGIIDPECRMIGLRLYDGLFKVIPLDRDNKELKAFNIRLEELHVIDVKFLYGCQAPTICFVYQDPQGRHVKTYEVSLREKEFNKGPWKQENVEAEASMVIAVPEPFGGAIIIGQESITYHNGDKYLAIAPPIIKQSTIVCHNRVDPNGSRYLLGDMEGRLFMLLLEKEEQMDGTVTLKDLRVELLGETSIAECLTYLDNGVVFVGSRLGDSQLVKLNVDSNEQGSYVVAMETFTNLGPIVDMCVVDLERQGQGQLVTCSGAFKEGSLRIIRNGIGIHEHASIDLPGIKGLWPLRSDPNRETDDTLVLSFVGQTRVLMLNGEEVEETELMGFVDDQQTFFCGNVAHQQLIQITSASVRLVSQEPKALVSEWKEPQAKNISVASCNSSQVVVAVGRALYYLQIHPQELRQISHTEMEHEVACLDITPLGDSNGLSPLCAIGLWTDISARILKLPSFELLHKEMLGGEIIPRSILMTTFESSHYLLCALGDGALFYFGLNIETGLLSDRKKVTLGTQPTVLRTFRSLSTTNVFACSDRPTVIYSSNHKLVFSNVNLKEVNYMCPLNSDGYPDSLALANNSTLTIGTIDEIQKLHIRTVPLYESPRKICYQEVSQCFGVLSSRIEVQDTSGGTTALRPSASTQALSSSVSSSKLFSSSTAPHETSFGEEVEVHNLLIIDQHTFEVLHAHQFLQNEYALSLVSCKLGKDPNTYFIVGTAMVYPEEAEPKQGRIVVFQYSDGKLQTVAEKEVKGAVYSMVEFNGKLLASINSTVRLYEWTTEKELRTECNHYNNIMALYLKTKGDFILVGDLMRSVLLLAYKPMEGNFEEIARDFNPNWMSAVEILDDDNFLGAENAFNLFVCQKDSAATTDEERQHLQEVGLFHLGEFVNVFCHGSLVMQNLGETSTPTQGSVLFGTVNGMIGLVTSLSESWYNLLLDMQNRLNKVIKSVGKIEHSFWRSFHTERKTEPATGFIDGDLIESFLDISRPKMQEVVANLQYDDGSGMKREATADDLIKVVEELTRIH
# Description: In vitro IKZF2 FACS Assay
# DC50, A: <1 nM; B: 1-10 nM; C: 10-100 nM; D: 100-1000 nM; E: >1000 nM. Dmax, A: >80%; B: 60-80%; C: 40-60%; D: 20-40%; E: <20%.
# IKZF2 [2] = molecular target: T1, IKZF2; assay: In vitro IKZF2 HiBit Assay (HEK293T Flp-in-HiBiT cells); assay type: cell-based; conditions: HEK293T Flp-in-HiBiT cells, 6 hrs incubation; for DC50: read-out: IKZF2 HiBit DC50; for Dmax: HEK-293T, read-out: IKZF2 HiBit Dmax (%)
# Outline: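 Remaining tagged Helios was read as lytic HiBiT/LgBiT luminescence normalized to DMSO, yielding binned DC50 and Dmax values. Treatment ran 6 h, with compounds at 11 three-fold doses diluted from 1 mM and 0.1% final DMSO. The cells were HEK293T Flp-in with CRISPR knock-in of HiBiT at the IKZF2 N-terminus.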
# CRBN/DDB1 = CRBN/DDB1 (Homo sapiens (Human), UniProt Q96SW2); assay: IC50 measurements for binding to CRBN/DDB1 (HTRF); conditions: His tagged CRBN+DDB, Cy5-labeled Thalidomide probe, one hour
# CRBN/DDB1, sequence (Q96SW2 whole entry, species assumed): as the sequence (Q96SW2 whole entry) above
# CRBN/DDB1, sequence (Q16531 whole entry partner, species assumed): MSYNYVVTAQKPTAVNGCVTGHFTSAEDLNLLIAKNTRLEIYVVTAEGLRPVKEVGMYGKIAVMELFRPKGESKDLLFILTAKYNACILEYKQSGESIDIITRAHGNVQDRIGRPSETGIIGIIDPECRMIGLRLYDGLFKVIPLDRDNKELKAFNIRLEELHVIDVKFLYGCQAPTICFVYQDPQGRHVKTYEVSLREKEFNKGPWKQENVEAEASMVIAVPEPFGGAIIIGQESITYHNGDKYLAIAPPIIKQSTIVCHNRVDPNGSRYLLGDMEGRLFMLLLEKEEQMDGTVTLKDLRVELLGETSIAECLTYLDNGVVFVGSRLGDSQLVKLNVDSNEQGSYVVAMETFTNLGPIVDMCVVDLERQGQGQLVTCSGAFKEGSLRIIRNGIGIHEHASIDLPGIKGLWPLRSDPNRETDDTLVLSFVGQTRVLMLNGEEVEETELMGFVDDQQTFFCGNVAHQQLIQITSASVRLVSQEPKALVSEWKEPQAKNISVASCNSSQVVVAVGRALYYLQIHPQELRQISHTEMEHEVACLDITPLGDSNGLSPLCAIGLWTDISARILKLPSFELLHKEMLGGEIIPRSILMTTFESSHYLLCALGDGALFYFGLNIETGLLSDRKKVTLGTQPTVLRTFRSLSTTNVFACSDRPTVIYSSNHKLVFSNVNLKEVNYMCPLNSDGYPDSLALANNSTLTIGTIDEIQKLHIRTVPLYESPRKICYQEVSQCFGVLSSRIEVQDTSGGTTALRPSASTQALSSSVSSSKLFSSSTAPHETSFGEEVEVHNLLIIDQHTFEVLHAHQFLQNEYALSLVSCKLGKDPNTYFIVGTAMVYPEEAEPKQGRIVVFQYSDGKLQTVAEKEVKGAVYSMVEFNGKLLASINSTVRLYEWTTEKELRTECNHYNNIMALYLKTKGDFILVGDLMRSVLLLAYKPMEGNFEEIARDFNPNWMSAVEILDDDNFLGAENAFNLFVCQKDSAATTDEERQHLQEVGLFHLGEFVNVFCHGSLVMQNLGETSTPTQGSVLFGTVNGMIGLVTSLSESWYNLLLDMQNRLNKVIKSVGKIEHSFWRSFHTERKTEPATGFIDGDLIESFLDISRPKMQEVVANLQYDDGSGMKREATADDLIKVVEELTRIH
# Outline: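 Serially diluted compounds compete with a Cy5-labeled thalidomide tracer (60 nM) for His-tagged CRBN-DDB1 (2 nM), detected via anti-6His Tb cryptate (0.4 nM); buffer HEPES pH 7.5 with TCEP, Brij-35, NaCl, BSA. One-hour room-temperature incubation, HTRF signal read, IC50 by four-parameter curve.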
# IKZF1, sequence (Q13422 whole entry): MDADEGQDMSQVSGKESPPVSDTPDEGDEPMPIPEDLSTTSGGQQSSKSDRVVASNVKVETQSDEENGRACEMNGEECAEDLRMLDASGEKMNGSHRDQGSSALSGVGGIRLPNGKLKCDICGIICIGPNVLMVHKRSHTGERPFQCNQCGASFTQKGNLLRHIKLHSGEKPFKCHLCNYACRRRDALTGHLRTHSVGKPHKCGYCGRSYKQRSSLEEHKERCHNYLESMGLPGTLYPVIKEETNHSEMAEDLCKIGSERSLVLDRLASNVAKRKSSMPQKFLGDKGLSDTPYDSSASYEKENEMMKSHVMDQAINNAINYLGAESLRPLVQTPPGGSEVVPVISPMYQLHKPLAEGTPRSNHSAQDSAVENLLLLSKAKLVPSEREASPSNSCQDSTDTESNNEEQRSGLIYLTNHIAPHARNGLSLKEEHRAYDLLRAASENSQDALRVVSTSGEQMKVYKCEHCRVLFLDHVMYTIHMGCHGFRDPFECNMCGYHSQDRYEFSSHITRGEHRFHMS
# IKZF1, sequence (Q96SW2 whole entry): as the sequence (Q96SW2 whole entry) above
# IKZF1, sequence (Q16531 2-1140 partner): as the sequence (Q16531 2-1140 partner) above
smiles,measurement,setting,value
"O=C1CCC(N2Cc3cc(-c4cc(CN5CCCC5)c5ccn(C6CC6)c5n4)ccc3C2=O)C(=O)N1 (stereo not shown) [Example 119, 3-(5-(1-cyclopropyl-4-(pyrrolidin-1-ylmethyl)-1H-pyrrolo[2,3-b]pyridin-6-yl)-1-oxoisoindolin-2-yl) piperidine-2,6-dione]",DC50,IKZF1,1000 to 10000 nM
same,Dmax,IKZF1,20 to 40%
same,DC50,IKZF2 [1],1 to 10 nM
same,Dmax,IKZF2 [1],> 80%
same,DC50,IKZF2 [2],< 1 nM
same,Dmax,IKZF2 [2],> 80%
same,IC50,CRBN/DDB1,1000 to 5000 nM
"Cn1ccc2c(CN3CCCC3)cc(-c3ccc4c(c3)CN(C3CCC(=O)NC3=O)C4=O)nc21 (stereo not shown) [Example 55, 3-(5-(1-methyl-4-(pyrrolidin-1-ylmethyl)-1H-pyrrolo[2,3-b]pyridin-6-yl)-1-oxoisoindolin-2-yl) piperidine-2,6-dione]",DC50,IKZF1,> 10000 nM
same,Dmax,IKZF1,20 to 40%
same,DC50,IKZF2 [1],< 1 nM
same,Dmax,IKZF2 [1],> 80%
same,DC50,IKZF2 [2],< 1 nM
same,Dmax,IKZF2 [2],> 80%
same,IC50,CRBN/DDB1,100 to 500 nM
"Cn1ccc2c(CN3CCCC3)c(Cl)c(-c3ccc4c(c3)CN(C3CCC(=O)NC3=O)C4=O)nc21 (stereo not shown) [Example 229, 3-(5-(5-chloro-1-methyl-4-(pyrrolidin-1-ylmethyl)-1H-pyrrolo[2,3-b]pyridin-6-yl)-1-oxoisoindolin-2-yl) piperidine-2,6-dione]",DC50,IKZF1,> 10000 nM
same,Dmax,IKZF1,< 20%
same,DC50,IKZF2 [1],1 to 10 nM
same,Dmax,IKZF2 [1],60 to 80%
same,DC50,IKZF2 [2],1 to 10 nM
same,Dmax,IKZF2 [2],60 to 80%
same,IC50,CRBN/DDB1,100 to 500 nM
"O=C1CCC(N2Cc3c(ccc(-c4cc(CN5CCCC5)c5ccn(C6CS(=O)(=O)C6)c5n4)c3Cl)C2=O)C(=O)N1 (stereo not shown) [Example 230, 3-(4-chloro-5-(1-(1,1-dioxidothietan-3-yl)-4-(pyrrolidin-1-ylmethyl)-1H-pyrrolo[2,3-b]pyridin-6-yl)-1-oxoisoindolin-2-yl) piperidine-2,6-dione]",DC50,IKZF1,> 10000 nM
same,Dmax,IKZF1,< 20%
same,DC50,IKZF2 [1],1 to 10 nM
same,Dmax,IKZF2 [1],> 80%
same,DC50,IKZF2 [2],1 to 10 nM
same,Dmax,IKZF2 [2],60 to 80%
same,IC50,CRBN/DDB1,100 to 500 nM
"CC(NCc1cc(-c2ccc3c(c2)CN(C2CCC(=O)NC2=O)C3=O)n2cncc2c1)c1cccc(Cl)c1 (stereo not shown) [Example 20, 3-(5-(7-(((1-(3-chlorophenyl)ethyl)amino)methyl)imidazo[1,5-a]pyridin-5-yl)-1-oxoisoindolin-2-yl) piperidine-2,6-dione]",DC50,IKZF2 [1],10 to 100 nM
same,Dmax,IKZF2 [1],20 to 40%
same,IC50,CRBN/DDB1,1000 to 5000 nM
"CC(C)(NCc1cc(-c2ccc3c(c2)CN(C2CCC(=O)NC2=O)C3=O)n2cncc2c1)c1ccccc1 (stereo not shown) [Example 18, 3-(1-oxo-5-(7-(((2-phenylpropan-2-yl)amino)methyl)imidazo[1,5-a]pyridin-5-yl)isoindolin-2-yl) piperidine-2,6-dione]",DC50,IKZF2 [1],100 to 1000 nM
same,Dmax,IKZF2 [1],40 to 60%
same,IC50,CRBN/DDB1,500 to 1000 nM
"CN(Cc1cc(-c2ccc3c(c2)CN(C2CCC(=O)NC2=O)C3=O)n2cncc2c1)C(C)(C)c1ccccc1 (stereo not shown) [Example 19, 3-(5-(7-((methyl (2-phenylpropan-2-yl)amino)methyl)imidazo[1,5-a]pyridin-5-yl)-1-oxoisoindolin-2-yl) piperidine-2,6-dione]",DC50,IKZF2 [1],100 to 1000 nM
same,Dmax,IKZF2 [1],20 to 40%
same,IC50,CRBN/DDB1,1000 to 5000 nM
Cc1ccc(CCNCc2cc(-c3ccc4c(c3)CN(C3CCC(=O)NC3=O)C4=O)n3cncc3c2)cc1Cl (stereo not shown) [Example 22],DC50,IKZF2 [1],> 1000 nM
same,Dmax,IKZF2 [1],20 to 40%
same,IC50,CRBN/DDB1,1000 to 5000 nM
O=C1CCC(N2Cc3cc(-c4cc(CN5CC6COCC(C6)C5)cc5cncn45)ccc3C2=O)C(=O)N1 (stereo not shown) [Example 11],DC50,IKZF2 [1],100 to 1000 nM
same,Dmax,IKZF2 [1],40 to 60%
same,IC50,CRBN/DDB1,500 to 1000 nM
"O=C1CCC(N2Cc3cc(-c4cc(CNCc5cccc6ccccc56)cc5cncn45)ccc3C2=O)C(=O)N1 (stereo not shown) [Example 24, 3-(5-(7-(((naphthalen-1-ylmethyl)amino)methyl)imidazo[1,5-a]pyridin-5-yl)-1-oxoisoindolin-2-yl) piperidine-2,6-dione]",DC50,IKZF2 [1],10 to 100 nM
same,Dmax,IKZF2 [1],20 to 40%
same,IC50,CRBN/DDB1,1000 to 5000 nM
"CC(NCc1cc(-c2ccc3c(c2)CN(C2CCC(=O)NC2=O)C3=O)n2cncc2c1)c1ccccc1Cl (stereo not shown) [Example 23, 3-(5-(7-(((1-(2-chlorophenyl)ethyl)amino)methyl)imidazo[1,5-a]pyridin-5-yl)-1-oxoisoindolin-2-yl) piperidine-2,6-dione]",DC50,IKZF2 [1],10 to 100 nM
same,Dmax,IKZF2 [1],20 to 40%
same,IC50,CRBN/DDB1,1000 to 5000 nM
"C[C@@H](NCc1cc(-c2ccc3c(c2)CN(C2CCC(=O)NC2=O)C3=O)n2cncc2c1)c1ccccc1 (single isomer, unassigned) [Example 16, 3-(1-oxo-5-(7-((((R*)-1-phenylethyl)amino)methyl)imidazo[1,5-a]pyridin-5-yl)isoindolin-2-yl) piperidine-2,6-dione]",DC50,IKZF2 [1],10 to 100 nM
same,Dmax,IKZF2 [1],40 to 60%
same,IC50,CRBN/DDB1,500 to 1000 nM
"C[C@H](NCc1cc(-c2ccc3c(c2)CN(C2CCC(=O)NC2=O)C3=O)n2cncc2c1)c1ccccc1 (single isomer, unassigned) [Example 14, 3-(1-oxo-5-(7-((((S*)-1-phenylethyl)amino)methyl)imidazo[1,5-a]pyridin-5-yl)isoindolin-2-yl) piperidine-2,6-dione]",DC50,IKZF2 [1],10 to 100 nM
same,Dmax,IKZF2 [1],40 to 60%
same,IC50,CRBN/DDB1,100 to 500 nM
"CC1CCCN(Cc2cc(-c3ccc4c(c3)CN(C3CCC(=O)NC3=O)C4=O)n3cncc3c2)C1 (stereo not shown) [Example 5, 3-(5-(7-((3-methylpiperidin-1-yl)methyl)imidazo[1,5-a]pyridin-5-yl)-1-oxoisoindolin-2-yl) piperidine-2,6-dione]",DC50,IKZF2 [1],10 to 100 nM
same,Dmax,IKZF2 [1],40 to 60%
same,IC50,CRBN/DDB1,1000 to 5000 nM
"C[C@H](c1ccccc1)N(C)Cc1cc(-c2ccc3c(c2)CN(C2CCC(=O)NC2=O)C3=O)n2cncc2c1 (single isomer, unassigned) [Example 17, 3-(5-(7-((methyl ((R*)-1-phenylethyl)amino)methyl)imidazo[1,5-a]pyridin-5-yl)-1-oxoisoindolin-2-yl) piperidine-2,6-dione]",DC50,IKZF2 [1],10 to 100 nM
same,Dmax,IKZF2 [1],20 to 40%
same,IC50,CRBN/DDB1,1000 to 5000 nM
Cn1ccc2cccc(CNCc3cc(-c4ccc5c(c4)CN(C4CCC(=O)NC4=O)C5=O)n4cncc4c3)c21 (stereo not shown) [Example 25],DC50,IKZF2 [1],> 1000 nM
same,Dmax,IKZF2 [1],< 20%
same,IC50,CRBN/DDB1,100 to 500 nM
"O=C1CCC(N2Cc3cc(-c4cc(CNCc5ccccc5)cc5cncn45)ccc3C2=O)C(=O)N1 (stereo not shown) [Example 13, 3-(5-(7-((benzylamino)methyl)imidazo[1,5-a]pyridin-5-yl)-1-oxoisoindolin-2-yl) piperidine-2,6-dione]",DC50,IKZF2 [1],10 to 100 nM
same,Dmax,IKZF2 [1],20 to 40%
same,IC50,CRBN/DDB1,100 to 500 nM
"Cn1cnc2c(-c3ccc4c(c3)CN(C3CCC(=O)NC3=O)C4=O)cc(CNCCc3ccccc3Cl)cc21 (stereo not shown) [Example 51, 3-(5-(6-(((2-chlorophenethyl)amino)methyl)-1-methyl-1H-benzo[d]imidazol-4-yl)-1-oxoisoindolin-2-yl) piperidine-2,6-dione]",DC50,IKZF2 [1],> 1000 nM
same,Dmax,IKZF2 [1],20 to 40%
same,IC50,CRBN/DDB1,100 to 500 nM
"C[C@@H](c1ccccc1)N(C)Cc1cc(-c2ccc3c(c2)CN(C2CCC(=O)NC2=O)C3=O)n2cncc2c1 (single isomer, unassigned) [Example 15, 3-(5-(7-((methyl ((S*)-1-phenylethyl)amino)methyl)imidazo[1,5-a]pyridin-5-yl)-1-oxoisoindolin-2-yl) piperidine-2,6-dione]",DC50,IKZF2 [1],10 to 100 nM
same,Dmax,IKZF2 [1],20 to 40%
same,IC50,CRBN/DDB1,1000 to 5000 nM
"O=C1CCC(N2Cc3cc(-c4cc(CN5CC6CC6C5)cc5cncn45)ccc3C2=O)C(=O)N1 (stereo not shown) [Example 7, 3-(5-(7-((3-azabicyclo[3.1.0]hexan-3-yl)methyl)imidazo[1,5-a]pyridin-5-yl)-1-oxoisoindolin-2-yl) piperidine-2,6-dione]",DC50,IKZF2 [1],10 to 100 nM
same,Dmax,IKZF2 [1],40 to 60%
same,IC50,CRBN/DDB1,500 to 1000 nM
"O=C1CCC(N2Cc3cc(-c4cc(CN5CCC5)cc5cncn45)ccc3C2=O)C(=O)N1 (stereo not shown) [Example 2, 3-(5-(7-(azetidin-1-ylmethyl)imidazo[1,5-a]pyridin-5-yl)-1-oxoisoindolin-2-yl) piperidine-2,6-dione]",DC50,IKZF2 [1],100 to 1000 nM
same,Dmax,IKZF2 [1],40 to 60%
same,IC50,CRBN/DDB1,100 to 500 nM
"O=C1CCC(N2Cc3cc(-c4ncc5ccc(CN6CCCC6)cn45)ccc3C2=O)C(=O)N1 (stereo not shown) [Example 53, 3-(1-oxo-5-(6-(pyrrolidin-1-ylmethyl)imidazo[1,5-a]pyridin-3-yl)isoindolin-2-yl) piperidine-2,6-dione]",DC50,IKZF2 [1],> 1000 nM
same,Dmax,IKZF2 [1],20 to 40%
same,IC50,CRBN/DDB1,5000 to 10000 nM
